Assay results reported in patent EP1528931B1, “DIPEPTIDYL PEPTIDASE IV INHIBITORS FOR DECREASING THE RATE OF CHRONIC WEIGHT GAIN” (Prosidion Ltd., priority 2002, dated 2004).
“And” between values parts separate entries of the source, which are not always exact repeats. Equal values may be shown once. Ends that are not written are not given here.

Experiments:
Male Zucker fa/fa rats [1] = experiment: Repeated once-daily dosing for 21 days: morning values and day-night profile of blood glucose and plasma insulin; format: in vivo, rat
Method: The parameters monitored were morning blood glucose and plasma insulin levels. In a day-night profile, glycemia and insulinaemia were monitored from day 16 to day 17. An OGTT was performed finally on day 21 to monitor blood glucose and plasma insulin kinetics to assess changes in glucose tolerance. Glibenclamide (DAB 1996; R011150/33372) was donated by Berlin-Chemie (Berlin, Germany). Male Zucker (fa/fa) rats of the body Weight class of 300g were purchased from Charles River (Sulzfeld, Germany).
Housing Conditions: Animals were kept single-housed under conventional conditions with controlled temperature (22±2 °C) on a 12/12 hours light/dark cycle (light on at 06:00 a.m.). Standard pellets (ssniff®, Soest, Germany) and tap water acidified with HCl were allowed ad libitum.
Catheterization of Carotid Artery: After one week of adaptation carotid catheters were implanted in the rats under general anesthesia (injection of 0.25 ml/kg i.p. Rompun® [2%], Bayer, Germany) and 0.5 ml/kg i.p. Velonarkon® (Arzneimittelwerk Dresden, Germany). The animals were allowed to recover for one week. The catheter was flushed with heparin-saline (104 IU/ml) three times per week.
Thereafter, the non-diabetic Wistar rats were treated orally once daily with RP (5 mg/kg b.w.) or TP (21.51 mg/kg b.w.) and the diabetic Zucker rats were treated orally once daily with RP (1 mg/kg b.w.) or TP (21.61 mg/kg b.w.) for 21 days at 05.00 p.m. (before regular food intake in the dark phase). The controls were given 1% cellulose solution orally (5 ml/kg). Blood samples were taken every morning at 07.30 a.m. from tail veins for measurement of blood glucose and plasma insulin. The last blood samples of this part of the program were taken at 07.30 a.m. on the 15th day to measure blood glucose and plasma insulin. The oral drug therapy was continued for one week. Recording the day-night profile under the above therapy blood glucose (Δt ≡ 3 h) and plasma insulin (Δt = 3-6 h) wore monitored from day 16 (at b5.40 p.m. beginning) to day 17 (at 02.00 p.m. end).
(§1) Blood glucose: Glucose levels were measured using the glucose oxidase procedure (Super G Glukosemeßgerät; Dr. Müller Gerätebau, Freital, Germany).
(§2) Plasma insulin: Insulin concentrations were assayed by the antibody RIA method (LINCO Research, Inc. St Charles, Mo., USA).

Male Zucker fa/fa rats [2] = experiment: OGTT on day 21 of repeated dosing; format: in vivo, rat
Method: OGTT: A final OGTT was performed on day 21 with blood sampling from the tail vein. Blood samples from the tail vein were taken at-12 h (the night before day 21), at 0 min (immediately before the beginning of OGTT), at 10, 20, 30, 40, 50, 60, 80, 100 and 120 min. Blood samples were taken in 20 µl glass capillaries for blood glucose measurements and in Eppendorf tubes (100 µl). The latter were immediately centrifuged and the plasma fractions were stored at-20°C for insulin analysis.
as §1, §2

[3] = target: human plasma containing DP IV-activity (Homo sapiens, UniProt P27487); experiment: Proteolytic processing of peptides in human plasma with or without P32/98, MALDI-TOF; settings: human EDTA-plasma with 9.8 µMol/l isoleucyl thiazolidine hemifumarate
Method: Matrix-assisted laser desorption/ionisation mass spectrometry was carried out using the Hewlett-Packard G2025 LD-TOF System with a linear tune of flight analyzer. […] The spectrometer was calibrated externally. […] Samples of the reaction mixtures were removed at various time intervals and mixed with equal volumes of the matrix solution. By mixing assay sample and matrix, the low pH of the matrix solution stopped the enzymatic reaction. A small volume (< 1 µl) of this mixture was transferred to a probe tip and immediately evaporated in a Hewlett-Packard G2024A Sample Prep Accessory to ensure rapid and homogenous sample crystallization. All spectra were generated using automatic mode by averaging 250 single shots selected by the signal-to-noise ratio.
The DP IV used in this study was purified from porcine kidney. […] In the case of plasma, fresh prepared human EDTA-plasma from healthy subjects was used. […] Capillary zone electrophoresis (CZE) investigations were carried out using a system from Beckman. Peptides and enzymes were incubated in the capillary electrophoresis system at 37°C using a 20 mM phosphate buffer pH7.4. Decrease of substrate was determined by subsequent measurements of the same sample. Separation was carried out using a 0.1 M phosphate buffer pH 2.5, a 50 µm * 30 cm fused silica capillary and 16 kV constant voltage. Peptides were detected at 200 nm. Substrate concentrations were calculated from the height of the peptide peaks, For determination of kinetic constants the degradation velocity from at least 4 substrate concentrations were determined and fitted according the Michaelis-Menten equation using Graphit 4.0.

[4] = system: human plasma containing DP IV-activity; experiment: as above; format: in vitro ADME; settings: inhibitor 9.8 µMol/l
Source text: The instrument was equipped with a 337 nm nitrogen laser, a potential acceleration source (5 kV) and a 1.0 m flight tube. […] The spectrometer was calibrated externally.
Peptides were detected at 200 nm.

porcine DP IV = target: T1, porcine DP IV (Sus scrofa, UniProt P22411); experiment: Kinetic constants of peptide degradation by DP IV, capillary zone electrophoresis (CZE); format: biochemical; settings: 37°C, phosphate buffer pH7.4, read-out: Cleavage, porcine DP IV, Km
T1 construct: from tissue; host or cells: porcine kidney
T1 sequence (P22411 whole entry): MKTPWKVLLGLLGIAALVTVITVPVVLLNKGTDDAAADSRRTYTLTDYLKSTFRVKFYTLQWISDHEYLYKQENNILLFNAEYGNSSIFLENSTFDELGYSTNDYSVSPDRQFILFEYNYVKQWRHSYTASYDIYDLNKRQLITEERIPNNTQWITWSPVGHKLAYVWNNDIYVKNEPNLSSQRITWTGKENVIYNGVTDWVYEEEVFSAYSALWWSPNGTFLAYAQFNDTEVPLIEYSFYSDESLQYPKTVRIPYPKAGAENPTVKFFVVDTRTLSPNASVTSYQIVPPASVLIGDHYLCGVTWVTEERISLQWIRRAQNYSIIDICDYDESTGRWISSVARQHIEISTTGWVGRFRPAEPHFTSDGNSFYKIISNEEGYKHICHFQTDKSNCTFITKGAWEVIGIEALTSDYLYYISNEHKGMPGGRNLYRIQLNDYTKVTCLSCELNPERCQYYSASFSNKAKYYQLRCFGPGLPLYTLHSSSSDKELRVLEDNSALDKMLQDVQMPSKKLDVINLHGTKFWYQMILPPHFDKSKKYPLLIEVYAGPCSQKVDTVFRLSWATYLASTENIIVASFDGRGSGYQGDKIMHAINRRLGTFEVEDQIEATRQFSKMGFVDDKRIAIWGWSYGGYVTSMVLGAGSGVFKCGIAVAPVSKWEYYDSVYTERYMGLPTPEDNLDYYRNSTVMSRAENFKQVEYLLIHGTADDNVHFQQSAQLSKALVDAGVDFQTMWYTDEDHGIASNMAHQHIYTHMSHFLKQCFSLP
Method: The DP IV used in this study was purified from porcine kidney. The specific activity measured using Gly-Pro-4-nitroanilide as a chromogenic substrate was at least 5 units/mg. […] Capillary zone electrophoresis (CZE) investigations were carried out using a system from Beckman. Peptides and enzymes were incubated in the capillary electrophoresis system at 37°C using a 20 mM phosphate buffer pH7.4. Decrease of substrate was determined by subsequent measurements of the same sample. Separation was carried out using a 0.1 M phosphate buffer pH 2.5, a 50 µm * 30 cm fused silica capillary and 16 kV constant voltage. Peptides were detected at 200 nm. Substrate concentrations were calculated from the height of the peptide peaks, For determination of kinetic constants the degradation velocity from at least 4 substrate concentrations were determined and fitted according the Michaelis-Menten equation using Graphit 4.0.

Chain of human plasma containing DP IV-activity (Homo sapiens, UniProt P27487) (P27487 39-766 limits assumed): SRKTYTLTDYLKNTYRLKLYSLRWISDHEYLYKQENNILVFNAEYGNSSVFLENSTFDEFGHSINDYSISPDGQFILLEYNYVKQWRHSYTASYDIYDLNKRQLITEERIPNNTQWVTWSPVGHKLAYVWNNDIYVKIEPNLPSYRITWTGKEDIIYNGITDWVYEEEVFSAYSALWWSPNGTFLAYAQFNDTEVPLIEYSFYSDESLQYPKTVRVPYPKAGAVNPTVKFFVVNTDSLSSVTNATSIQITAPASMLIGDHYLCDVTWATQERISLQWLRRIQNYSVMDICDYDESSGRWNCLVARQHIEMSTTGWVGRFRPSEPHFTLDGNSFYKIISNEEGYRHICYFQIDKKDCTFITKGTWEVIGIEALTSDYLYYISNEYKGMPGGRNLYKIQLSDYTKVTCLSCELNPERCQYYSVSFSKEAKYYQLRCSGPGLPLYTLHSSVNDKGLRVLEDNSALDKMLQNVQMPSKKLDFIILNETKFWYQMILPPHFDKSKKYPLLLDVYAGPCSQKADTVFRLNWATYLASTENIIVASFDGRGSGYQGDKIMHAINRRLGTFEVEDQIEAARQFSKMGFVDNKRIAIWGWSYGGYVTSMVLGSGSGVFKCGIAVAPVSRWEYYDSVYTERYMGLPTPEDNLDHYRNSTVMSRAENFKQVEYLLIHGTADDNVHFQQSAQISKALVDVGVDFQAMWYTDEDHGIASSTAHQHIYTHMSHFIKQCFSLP

COc1ccc(Cl)cc1C(=O)NCCc1ccc(S(=O)(=O)NC(=O)NC2CCCCC2)cc1 [glibenclamide]
Day-night profile: mean blood glucose (Male Zucker fa/fa rats [1]; Zucker rats, 02.00 p.m. next day): 7.34 ± 0.77 mmol/L
Day-night profile: plasma insulin (Male Zucker fa/fa rats [1]; Zucker rats, 02.00 p.m. the next day): 58.3 ± 7.3 ng/mL
Day-night profile: plasma insulin (Male Zucker fa/fa rats [1]; Zucker rats, day 16, 05.00 p.m.): 50.0 ± 8.2 ng/mL
Day-night profile: mean blood glucose (Male Zucker fa/fa rats [1]; Zucker rats, day 16, 05.00 p.m., RP 1 mg/kg or TP 21.61 mg/kg orally once daily): 7.96 ± 1.13 mmol/L
Day-night profile: plasma insulin (Male Zucker fa/fa rats [1]; Zucker rats, day 16, 08.00 p.m.): 57.3 ± 8.2 ng/mL
Day-night profile: mean blood glucose (Male Zucker fa/fa rats [1]; Zucker rats, day 16, 11.00 p.m.): 14.80 ± 1.46 mmol/L
Day-night profile: plasma insulin (Male Zucker fa/fa rats [1]; Zucker rats, day 17, 05.00 a.m.): 76.3 ± 8.6 ng/mL
Day-night profile: mean blood glucose (Male Zucker fa/fa rats [1]; Zucker rats, day 17, 11.00 a.m.): 7.66 ± 1.22 mmol/L
Increase of morning blood glucose (Male Zucker fa/fa rats [1]; Zucker rats, within two days of therapy): about 1.5 mmol/l
Increase of insulin output (Male Zucker fa/fa rats [1]; obese Zucker rat, subchronic treatment, total daily insulin secretion): 27%
Glycemia at last drug application before overnight fasting (Male Zucker fa/fa rats [2]; 05.00 p.m., night before day 21): 8.81 ± 1.21 mmol/L
Blood glucose increase after the glucose load (Male Zucker fa/fa rats [2]; OGTT day 21): about 11 mmol/l
glucose area under the curve (G-AUC0-120 min) (Male Zucker fa/fa rats [2]; OGTT day 21): 1096 ± 76 mmol·min/L
Glycemia after overnight fasting (basal, before OGTT) (Male Zucker fa/fa rats [2]; day 21, 07.30 a.m.): 4.91 ± 0.37 mmol/L
OGTT blood glucose (Male Zucker fa/fa rats [2]; day 21, 50 min): 16.33 ± 0.98 mmol/L
OGTT blood glucose (Male Zucker fa/fa rats [2]; day 21, 80 min): 16.24 ± 1.09 mmol/L
OGTT blood glucose (Male Zucker fa/fa rats [2]; day 21, 100 min): 15.13 ± 0.76 mmol/L
OGTT blood glucose (Male Zucker fa/fa rats [2]; day 21, 120 min): 14.81 ± 0.66 mmol/L
Fasting plasma insulin at the beginning of the OGTT (Male Zucker fa/fa rats [2]; day 21, overnight fasting, listed as RP): 11.8±1.5 ng/ml and ~ 12.5 ng/ml

Cholecystokinin [Cholecystokinin (CCK21)]
Cleavage, human plasma +P32/98 [3]: slow unspecific degradation by aminopeptidases and ø

Di-[2S,3S]-2-Amino-3-methyl-pentanoic-1,3-thiazolidine fumarate [P32/98]
Hydrolysis of gastrointestinal peptides in human plasma [4]: blocked

Gastrin releasing peptide (VPLPAGGGTVLTKMYPRGNHWAVGHLM; ends and bridges not checked; UniProt P07492 24-50, looked up) [Gastrin releasing peptide (GRP)]
Cleavage, human plasma +P32/98 [3]: ø

Peptide histidin methionine [Peptide histidin methionine (PHM)]
Cleavage, human plasma +P32/98 [3]: ø
Km (porcine DP IV): 35 µM

Pituitary adenylate cyclase activating polypeptide 27
Cleavage, human plasma +P32/98 [3]: ø

Secretin
Cleavage, human plasma +P32/98 [3]: ø

Somatostatin 14
Km (porcine DP IV): 42 µM

Somatostatin 28
Km (porcine DP IV): 6 µM
